Measurements taken from PubChem BioAssay (NCI).
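Five concentrations, 48 hours, 96-well plates. TGI: total growth inhibition.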

Columns and labels:
Experiment in all cases: NCI-60 cell line screen, 48 h
SF-539 CNS = tested on: SF-539 CNS
UACC-62 melanoma = tested on: UACC-62 melanoma
OVCAR-8 ovarian = tested on: OVCAR-8 ovarian
786-0 renal = tested on: 786-0 renal
HCT-15 colon = tested on: HCT-15 colon
SF-295 CNS = tested on: SF-295 CNS
NCI/ADR-RES ovarian = tested on: NCI/ADR-RES ovarian
BT-549 breast = tested on: BT-549 breast
T-47D breast = tested on: T-47D breast
TK-10 renal = tested on: TK-10 renal
EKVX NSCLC = tested on: EKVX NSCLC
M14 melanoma = tested on: M14 melanoma
OVCAR-3 ovarian = tested on: OVCAR-3 ovarian
SK-MEL-28 melanoma = tested on: SK-MEL-28 melanoma
A549 NSCLC = tested on: A549 NSCLC
KM12 colon = tested on: KM12 colon
RPMI-8226 leukemia = tested on: RPMI-8226 leukemia
SN12C renal = tested on: SN12C renal
MALME-3M melanoma = tested on: MALME-3M melanoma
K-562 leukemia = tested on: K-562 leukemia
SK-MEL-2 melanoma = tested on: SK-MEL-2 melanoma
NCI-H522 lung = tested on: NCI-H522 lung
UACC-257 melanoma = tested on: UACC-257 melanoma
SNB-19 CNS = tested on: SNB-19 CNS
IGROV1 ovarian = tested on: IGROV1 ovarian
HCT-116 colon = tested on: HCT-116 colon
DU-145 prostate = tested on: DU-145 prostate
SW-620 colon = tested on: SW-620 colon
NCI-H226 lung = tested on: NCI-H226 lung
SF-268 CNS = tested on: SF-268 CNS
HS 578T breast = tested on: HS 578T breast
MDA-MB-435 = tested on: MDA-MB-435
SR leukemia = tested on: SR leukemia
NCI-H460 lung = tested on: NCI-H460 lung
HOP-62 NSCLC = tested on: HOP-62 NSCLC
OVCAR-4 ovarian = tested on: OVCAR-4 ovarian
MDA-N = tested on: MDA-N
SK-MEL-5 melanoma = tested on: SK-MEL-5 melanoma
HL-60(TB) leukemia = tested on: HL-60(TB) leukemia
HT29 colon = tested on: HT29 colon
NCI-H23 lung = tested on: NCI-H23 lung
CCRF-CEM leukemia = tested on: CCRF-CEM leukemia
HCC-2998 colon = tested on: HCC-2998 colon
MCF7 breast = tested on: MCF7 breast
MDA-MB-231 breast = tested on: MDA-MB-231 breast
ACHN renal = tested on: ACHN renal
COLO 205 colon = tested on: COLO 205 colon
MOLT-4 leukemia = tested on: MOLT-4 leukemia
U251 CNS = tested on: U251 CNS
LOX IMVI melanoma = tested on: LOX IMVI melanoma
UO-31 renal = tested on: UO-31 renal
SK-OV-3 ovarian = tested on: SK-OV-3 ovarian
RXF 393 renal = tested on: RXF 393 renal
PC-3 prostate = tested on: PC-3 prostate
HOP-92 NSCLC = tested on: HOP-92 NSCLC
SNB-75 CNS = tested on: SNB-75 CNS
CAKI-1 renal = tested on: CAKI-1 renal
OVCAR-5 ovarian = tested on: OVCAR-5 ovarian
A498 renal = tested on: A498 renal

COc1ccc(NS(=O)c2ccc(Cl)cc2)cc1 (configuration not stated)
TGI (SF-539 CNS): 30 µM
TGI (UACC-62 melanoma): 39.9 µM
TGI (OVCAR-8 ovarian): > 100 µM
TGI (786-0 renal): > 100 µM
TGI (HCT-15 colon): > 100 µM
TGI (SF-295 CNS): > 100 µM
TGI (NCI/ADR-RES ovarian): > 100 µM
TGI (BT-549 breast): 63.9 µM
TGI (T-47D breast): 41.2 µM
TGI (TK-10 renal): > 100 µM
TGI (EKVX NSCLC): > 100 µM
TGI (M14 melanoma): > 100 µM
TGI (OVCAR-3 ovarian): > 100 µM
TGI (SK-MEL-28 melanoma): > 100 µM
TGI (A549 NSCLC): > 100 µM
TGI (KM12 colon): 23.8 µM
TGI (RPMI-8226 leukemia): > 100 µM
TGI (SN12C renal): > 100 µM
TGI (MALME-3M melanoma): 60 µM
TGI (K-562 leukemia): > 100 µM
TGI (SK-MEL-2 melanoma): 70 µM
TGI (NCI-H522 lung): > 100 µM
TGI (UACC-257 melanoma): > 100 µM
TGI (SNB-19 CNS): > 100 µM
TGI (IGROV1 ovarian): > 100 µM
TGI (HCT-116 colon): > 100 µM
TGI (DU-145 prostate): > 100 µM
TGI (SW-620 colon): > 100 µM
TGI (NCI-H226 lung): 81.1 µM
TGI (SF-268 CNS): 39.2 µM
TGI (HS 578T breast): > 100 µM
TGI (MDA-MB-435): 76.1 µM
TGI (SR leukemia): > 100 µM
TGI (NCI-H460 lung): > 100 µM
TGI (HOP-62 NSCLC): > 100 µM
TGI (OVCAR-4 ovarian): > 100 µM
TGI (MDA-N): > 100 µM
TGI (SK-MEL-5 melanoma): > 100 µM
TGI (HL-60(TB) leukemia): > 100 µM
TGI (HT29 colon): > 100 µM
TGI (NCI-H23 lung): > 100 µM
TGI (CCRF-CEM leukemia): > 100 µM
TGI (HCC-2998 colon): > 100 µM
TGI (MCF7 breast): > 100 µM
TGI (MDA-MB-231 breast): > 100 µM
TGI (ACHN renal): > 100 µM
TGI (COLO 205 colon): > 100 µM
TGI (MOLT-4 leukemia): > 100 µM
TGI (U251 CNS): 54.2 µM
TGI (LOX IMVI melanoma): > 100 µM
TGI (UO-31 renal): 42.4 µM

CCCCCCCCNC(=O)C1=C(C)NC(C)=C(C(=O)NCCCCCCCC)C1
TGI (SF-539 CNS): > 100 µM
TGI (UACC-62 melanoma): > 100 µM
TGI (OVCAR-8 ovarian): > 100 µM
TGI (786-0 renal): > 100 µM
TGI (SK-OV-3 ovarian): > 100 µM
TGI (HCT-15 colon): > 100 µM
TGI (SF-295 CNS): > 100 µM
TGI (RXF 393 renal): > 100 µM
TGI (NCI/ADR-RES ovarian): > 100 µM
TGI (BT-549 breast): > 100 µM
TGI (PC-3 prostate): > 100 µM
TGI (HOP-92 NSCLC): > 100 µM
TGI (T-47D breast): > 100 µM
TGI (TK-10 renal): > 100 µM
TGI (EKVX NSCLC): > 100 µM
TGI (M14 melanoma): > 100 µM
TGI (OVCAR-3 ovarian): > 100 µM
TGI (A549 NSCLC): > 100 µM
TGI (KM12 colon): > 100 µM
TGI (RPMI-8226 leukemia): > 100 µM
TGI (SN12C renal): > 100 µM
TGI (K-562 leukemia): > 100 µM
TGI (SK-MEL-2 melanoma): > 100 µM
TGI (NCI-H522 lung): > 100 µM
TGI (UACC-257 melanoma): > 100 µM
TGI (SNB-19 CNS): > 100 µM
TGI (IGROV1 ovarian): > 100 µM
TGI (HCT-116 colon): > 100 µM
TGI (DU-145 prostate): > 100 µM
TGI (SW-620 colon): > 100 µM
TGI (NCI-H226 lung): > 100 µM
TGI (SF-268 CNS): > 100 µM
TGI (HS 578T breast): > 100 µM
TGI (MDA-MB-435): > 100 µM
TGI (NCI-H460 lung): > 100 µM
TGI (HOP-62 NSCLC): > 100 µM
TGI (OVCAR-4 ovarian): > 100 µM
TGI (MDA-N): > 100 µM
TGI (SK-MEL-5 melanoma): > 100 µM
TGI (HL-60(TB) leukemia): > 100 µM
TGI (HT29 colon): > 100 µM
TGI (NCI-H23 lung): > 100 µM
TGI (CCRF-CEM leukemia): > 100 µM
TGI (HCC-2998 colon): > 100 µM
TGI (MCF7 breast): > 100 µM
TGI (SNB-75 CNS): > 100 µM
TGI (MDA-MB-231 breast): > 100 µM
TGI (CAKI-1 renal): > 100 µM
TGI (ACHN renal): > 100 µM
TGI (COLO 205 colon): > 100 µM
TGI (MOLT-4 leukemia): > 100 µM
TGI (U251 CNS): > 100 µM
TGI (LOX IMVI melanoma): > 100 µM
TGI (UO-31 renal): > 100 µM
TGI (OVCAR-5 ovarian): > 100 µM

Cc1ccc2nc3n(c2c1)C(c1c(F)cccc1F)SC3 (configuration not stated)
TGI (SF-539 CNS): > 100 µM
TGI (UACC-62 melanoma): > 100 µM
TGI (786-0 renal): > 100 µM
TGI (SK-OV-3 ovarian): > 100 µM
TGI (HCT-15 colon): > 100 µM
TGI (SF-295 CNS): > 100 µM
TGI (RXF 393 renal): > 100 µM
TGI (NCI/ADR-RES ovarian): > 100 µM
TGI (BT-549 breast): > 100 µM
TGI (PC-3 prostate): > 100 µM
TGI (HOP-92 NSCLC): > 100 µM
TGI (T-47D breast): > 100 µM
TGI (TK-10 renal): > 100 µM
TGI (M14 melanoma): > 100 µM
TGI (OVCAR-3 ovarian): > 100 µM
TGI (SK-MEL-28 melanoma): > 100 µM
TGI (A549 NSCLC): > 100 µM
TGI (KM12 colon): > 100 µM
TGI (RPMI-8226 leukemia): > 100 µM
TGI (SN12C renal): > 100 µM
TGI (MALME-3M melanoma): > 100 µM
TGI (K-562 leukemia): > 100 µM
TGI (SK-MEL-2 melanoma): > 100 µM
TGI (NCI-H522 lung): > 100 µM
TGI (UACC-257 melanoma): > 100 µM
TGI (SNB-19 CNS): > 100 µM
TGI (IGROV1 ovarian): > 100 µM
TGI (HCT-116 colon): > 100 µM
TGI (DU-145 prostate): > 100 µM
TGI (SW-620 colon): > 100 µM
TGI (NCI-H226 lung): > 100 µM
TGI (SF-268 CNS): > 100 µM
TGI (HS 578T breast): > 100 µM
TGI (SR leukemia): > 100 µM
TGI (NCI-H460 lung): > 100 µM
TGI (HOP-62 NSCLC): > 100 µM
TGI (OVCAR-4 ovarian): > 100 µM
TGI (MDA-N): > 100 µM
TGI (SK-MEL-5 melanoma): > 100 µM
TGI (HL-60(TB) leukemia): > 100 µM
TGI (HT29 colon): > 100 µM
TGI (NCI-H23 lung): > 100 µM
TGI (CCRF-CEM leukemia): > 100 µM
TGI (HCC-2998 colon): > 100 µM
TGI (MCF7 breast): > 100 µM
TGI (SNB-75 CNS): > 100 µM
TGI (MDA-MB-231 breast): > 100 µM
TGI (CAKI-1 renal): > 100 µM
TGI (ACHN renal): > 100 µM
TGI (COLO 205 colon): > 100 µM
TGI (MOLT-4 leukemia): > 100 µM
TGI (U251 CNS): > 100 µM
TGI (A498 renal): > 100 µM
TGI (LOX IMVI melanoma): > 100 µM
TGI (UO-31 renal): > 100 µM
TGI (OVCAR-5 ovarian): > 100 µM
